Source: patent US4201866A, “O-Hemi-succinate of propranolol” (American Home Products Corporation, priority 1977, dated 1980)
“And” between values parts separate entries of the source, which are not always exact repeats. Equal values may be shown once. Where a name gives a salt, the structure may show the parent alone. Read-outs that look alike come from different tables or passages of the source.

Tests used:
Assay type in all cases: in vivo, beagle dogs
[1] = Oral administration of propranolol-o-hemi-succinate HCl and propranolol HCl; plasma levels of free propranolol (Example 2)
Method: In this experiment, four beagle dogs were given an 80 mg. oral dose of propranolol HCl or an equivalent dose of the o-hemi-succinate. The animals were divided into two groups of two, each group receiving the drugs according to a crossover design. The crossover experiment was repeated twice. A period of at least one week elapsed between each dosing day. Blood samples were obtained at regular intervals after dosing a plasma was analyzed for free propranolol concentrations.
(§1) Plasma was analyzed for free propranolol by a TLC fluorometric procedure. Two ml samples were mixed with 2 ml of pH 10 buffer and extracted with 25 ml of ethyl ether. A 20 ml aliquot from the ether phase was evaporated to dryness and the dry residue was dissolved in 100 μl of ethanol. Twenty-five μl aliquots were spotted on TLC plates of silica gel along with standard solutions of propranolol. The plates were developed in a saturated tank containing the solvent system methanol (100 ml): concentrated NH4 OH (0.4 ml). After development, the plates were dried and sprayed with a 50% solution of propylene glycol in water. They were then read in the fluorescence mode of a Schoeffel spectrodensitometer. The limit of reliable quantitation was 2 ng. of propranolol per ml of plasma.

[2] = Oral administration of a reduced dose of propranolol-o-hemi-succinate hydrochloride; plasma levels of free propranolol (Example 4)
Method: Two beagle dogs were given an oral dose of 13.4 mg of propranolol-O-hemi-succinate hydrochloride (equivalent to 10 mg. propranolol HCl). Blood samples were obtained at regular intervals after drug administration and plasma analyzed for free propranolol. Plasma levels of free propranolol were compared to those obtained following administration of 80 mg dose of propranolol HCl.

[3] = Intravenous propranolol-o-hemi-succinate hydrochloride; plasma levels of unchanged ester and free propranolol (Example 5)
Method: (§2) Four beagle dogs were administered propranolol-o-hemi-succinate hydrochloride either intravenously or orally. The dogs were divided into two groups of two, each group receiving each dosing regimen according to a crossover design. The oral doses consisted of 107 mg of propranolol-o-hemi-succinate hydrochloride (equivalent to 80 mg propranolol HCl) and the intravenous doses consisted of 26.7 mg of propranolol-o-hemi-succinate hydrochloride (equivalent to 20 mg propranolol HCl). Blood samples were collected at regular intervals after dosing and plasma was analyzed for free propranolol and unchanged propranolol-o-hemi-succinate hydrochloride.
(§3) Plasma was analyzed for propranolol-o-hemi-succinate hydrochloride by a TLC fluorometric procedure. Two ml samples were mixed with 2 ml of pH 4 buffer and extracted with 40 ml of methylene chloride. A 30 ml aliquot from the organic phase was evaporated to dryness and the residue was dissolved in 100 μl of ethanol. Twenty-five μl aliquots were spotted on TLC plates of silica gel along with standard solutions of propranolol-o-hemi-succinate hydrochloride. The plates were developed in saturated tank containing the solvent system: isopropyl alcohol (55 ml), benzene (40 ml), water (5 ml), formic acid (3 ml). After developement, the plates were dried and sprayed with a 50% solution of propylene glycol in water. They were read in the fluorescence mode of a Schoeffel spectrodensitometer. The limit of reliable quantitation was 25 ng per ml of plasma.

[4] = Intravenous administration of propranolol HCl and propranolol-o-hemi-succinate HCl; plasma levels of free propranolol (Example 3)
Method: as §1
In this experiment, the same four dogs used in Example 2 were administered a 20 mg intravenous dose of propranolol HCl on one experimental day and an equivalent dose of the o-hemi-succinate on a second day. A period of one week elapsed between each administration. Blood samples were collected and analyzed as above.

[5] = Oral propranolol-o-hemi-succinate hydrochloride; plasma levels of unchanged ester and free propranolol (Example 5)
Method: as §2, §3

[6] = 80 mg propranolol HCl or equivalent

**Q.** For `CC(C)NCC(COc1cccc2ccccc12)OC(=O)CCC(=O)O` (stereo not drawn) [propranolol-o-hemi-succinate HCl, Butanedioic Acid Monol[[2-(1-Methylethyl] Amino] -1-[(1-Naphthalenyloxy) Methyl] Ethyl] Ester Hydrochloride], which “Absorption of the succinate and its conversion to propranolol” value [1] is on record?
**A.** rapid

**Q.** And the “plasma levels of free propranolol relative to equivalent dose of propranolol hydrochloride” value [1]?
**A.** eight times higher

**Q.** And the “C.V. of overall mean AUC 0-6 hr” value [1, 6]?
**A.** 41%

**Q.** What about the “s.d. of overall mean AUC 0-6 hr” value [1, 6] of the same molecule?
**A.** 445 ng·h/mL

**Q.** And the “Plasma level of propranolol following oral administration, compared with propranolol hydrochloride” value ([1]; equivalent dose)?
**A.** considerably higher

**Q.** And the “reduction of fluctuation in plasma levels following the pro-drug, as revealed by AUC values” ([1]; vs propranolol hydrochloride)?
**A.** 35%

**Q.** What about the “Plasma level of free propranolol” value ([2]; 6 hours after dosing, 80 mg propranolol HCl or 13.4 mg hemi-succinate HCl, individual dogs, Hydrochloride) of the same molecule?
**A.** Trace

**Q.** What about the “levels of free propranolol at a dose 1/8 that of propranolol HCl” value ([2]; dogs, vs propranolol HCl, only two dogs) of the same molecule?
**A.** comparable levels

**Q.** And the “Plasma level of unchanged propranolol-o-hemi-succinate HCl” value ([3]; 0 h, i.v. 26.7 mg, individual dogs, in ng/mL)?
**A.** 0

**Q.** And the Plasma level of unchanged propranolol-o-hemi-succinate HCl ([3]; 1/2 hr, i.v. 26.7 mg, individual dogs, 30 min, Hydrochloride)?
**A.** 692 ng/mL and 1130 ng/mL and 811 ng/mL and 487 ng/mL

**Q.** And the Plasma level of unchanged propranolol-o-hemi-succinate HCl ([3]; 5 min, i.v. 26.7 mg, individual dogs, Hydrochloride)?
**A.** 2770 ng/mL and 2540 ng/mL and 1430 ng/mL

**Q.** What about the Plasma level of unchanged propranolol-o-hemi-succinate HCl ([3]; 10 min, i.v. 26.7 mg, individual dogs, Hydrochloride) of the same molecule?
**A.** 1590 ng/mL and 2350 ng/mL and 1780 ng/mL and 946 ng/mL

**Q.** What about the Plasma level of unchanged propranolol-o-hemi-succinate HCl ([3]; 15 min, i.v. 26.7 mg, individual dogs, Hydrochloride) of the same molecule?
**A.** 1210 ng/mL and 1760 ng/mL and 1340 ng/mL and 819 ng/mL

**Q.** And the Plasma level of unchanged propranolol-o-hemi-succinate HCl ([3]; 1 hr, i.v. 26.7 mg, individual dogs, Hydrochloride, 60 min)?
**A.** 366 ng/mL and 198 ng/mL

**Q.** What about the Plasma level of unchanged propranolol-o-hemi-succinate HCl ([3]; 2 hrs, i.v. 26.7 mg, individual dogs, Hydrochloride, 120 min) of the same molecule?
**A.** 91 ng/mL and 76 ng/mL and 132 ng/mL and 30 ng/mL

**Q.** What about the “Plasma level of unchanged propranolol-o-hemi-succinate HCl” value ([3]; 4 hrs, i.v. 26.7 mg, individual dogs, * = estimate only, below level of reliable quantitation, Hydrochloride) of the same molecule?
**A.** Trace

**Q.** And the “Plasma level of unchanged propranolol-o-hemi-succinate HCl” value ([3]; 6 hrs, i.v. 26.7 mg, individual dogs)?
**A.** Trace

**Q.** What about the “Mean plasma level of unchanged propranolol-o-hemi-succinate HCl” value ([3]; 6 hrs, i.v. 26.7 mg, mean) of the same molecule?
**A.** Trace

**Q.** What about the “half-life of free propranolol” value ([3]; after i.v. succinate ester) of the same molecule?
**A.** two

**Q.** What about the half-life ([3]; dog, plasma, 26.7 mg, following intravenous dosing, read-out: t 1/2 of disappearance of propranolol-o-hemi-succinate hydrochloride) of the same molecule?
**A.** 30 min

**Q.** What about the concentration at 0.5 h ([3]; dog, plasma, iv, 26.7 mg, 1/2 hr, i.v. 26.7 mg, mean, read-out: Mean plasma level of unchanged propranolol-o-hemi-succinate HCl) of the same molecule?
**A.** 781 ng/mL

**Q.** And the concentration at 5 min ([3]; dog, plasma, iv, 26.7 mg, 5 min, i.v. 26.7 mg, individual dogs, read-out: Plasma level of unchanged propranolol-o-hemi-succinate HCl)?
**A.** 2200 ng/mL

**Q.** What about the concentration at 5 min ([3]; dog, plasma, iv, 26.7 mg, 5 min, i.v. 26.7 mg, mean, read-out: Mean plasma level of unchanged propranolol-o-hemi-succinate HCl) of the same molecule?
**A.** 2240 ng/mL

**Q.** What about the concentration at 10 min ([3]; dog, plasma, iv, 26.7 mg, 10 min, i.v. 26.7 mg, mean, read-out: Mean plasma level of unchanged propranolol-o-hemi-succinate HCl) of the same molecule?
**A.** 1670 ng/mL

**Q.** What about the concentration at 0.25 h ([3]; dog, plasma, iv, 26.7 mg, 15 min, i.v. 26.7 mg, mean, read-out: Mean plasma level of unchanged propranolol-o-hemi-succinate HCl) of the same molecule?
**A.** 1280 ng/mL

**Q.** What about the concentration at 1 h ([3]; dog, plasma, iv, 26.7 mg, 1 hr, i.v. 26.7 mg, individual dogs, read-out: Plasma level of unchanged propranolol-o-hemi-succinate HCl) of the same molecule?
**A.** 287 ng/mL

**Q.** And the concentration at 1 h ([3]; dog, plasma, iv, 26.7 mg, 1 hr, i.v. 26.7 mg, mean, read-out: Mean plasma level of unchanged propranolol-o-hemi-succinate HCl)?
**A.** 284 ng/mL

**Q.** What about the concentration at 2 h ([3]; dog, plasma, iv, 26.7 mg, 2 hrs, i.v. 26.7 mg, mean, read-out: Mean plasma level of unchanged propranolol-o-hemi-succinate HCl) of the same molecule?
**A.** 82 ng/mL

**Q.** And the concentration at 4 h ([3]; dog, plasma, iv, 26.7 mg, 4 hrs, i.v. 26.7 mg, individual dogs, * = estimate only, below level of reliable quantitation, read-out: Plasma level of unchanged propranolol-o-hemi-succinate HCl)?
**A.** ~15 ng/mL

**Q.** And the concentration at 4 h ([3]; dog, plasma, iv, 26.7 mg, 4 hrs, i.v. 26.7 mg, mean, * = estimate only, below level of reliable quantitation, read-out: Mean plasma level of unchanged propranolol-o-hemi-succinate HCl)?
**A.** ~4 ng/mL

**Q.** What about the AUC(0-t) at 6 h ([3]; dog, plasma, iv, 26.7 mg, i.v. 26.7 mg, mean, read-out: Mean AUC 0-6 hr of unchanged propranolol-o-hemi-succinate HCl) of the same molecule?
**A.** 1230 ng·h/mL

**Q.** And the AUC 0-6 hr of unchanged propranolol-o-hemi-succinate HCl ([3]; i.v. 26.7 mg, individual dogs, Hydrochloride, 360 min)?
**A.** 1160 ng·h/mL and 1530 ng·h/mL and 1520 ng·h/mL and 711 ng·h/mL

**Q.** And the “Mean plasma level of unchanged propranolol-o-hemi-succinate HCl” value ([3]; i.v. 26.7 mg, mean)?
**A.** 0

**Q.** What about the “ester left 4 hours after administration” value ([3]; i.v., 4 hours) of the same molecule?
**A.** virtually none

**Q.** And the “plasma levels of free propranolol 6 hours after administration of the succinate ester” value ([3]; i.v., 6 hours)?
**A.** significant plasma levels still existed

**Q.** And the “Plasma levels of free propranolol compared with propranolol i.v.” value ([4]; equivalent dose)?
**A.** lower

**Q.** What about the “Conversion of the propranolol ester to propranolol” value ([4]; i.v.) of the same molecule?
**A.** very fast

**Q.** What about the “levels of propranolol found 5 minutes after administration” value ([4]; i.v., 5 minutes) of the same molecule?
**A.** high levels

**Q.** What about the “Plasma level of unchanged propranolol-o-hemi-succinate HCl” value ([5]; 0 h, oral 107 mg, individual dogs, in ng/mL) of the same molecule?
**A.** 0

**Q.** What about the “Mean plasma level of unchanged propranolol-o-hemi-succinate HCl” value ([5]; 0 h, oral 107 mg, mean) of the same molecule?
**A.** 0

**Q.** And the Plasma level of unchanged propranolol-o-hemi-succinate HCl ([5]; 1 hr, oral 107 mg, individual dogs, Hydrochloride, 60 min)?
**A.** 2950 ng/mL and 1900 ng/mL and 3240 ng/mL and 1320 ng/mL

**Q.** What about the Plasma level of unchanged propranolol-o-hemi-succinate HCl ([5]; 2 hrs, oral 107 mg, individual dogs, Hydrochloride, 120 min) of the same molecule?
**A.** 715 ng/mL and 390 ng/mL and 486 ng/mL and 268 ng/mL

**Q.** What about the Plasma level of unchanged propranolol-o-hemi-succinate HCl ([5]; 6 hrs, oral 107 mg, individual dogs, * = estimate only, below level of reliable quantitation, Hydrochloride) of the same molecule?
**A.** 0 ng/mL

**Q.** And the Plasma level of unchanged propranolol-o-hemi-succinate HCl ([5]; 6 hrs, oral 107 mg, individual dogs, * = estimate only, below level of reliable quantitation, Hydrochloride, 360 min)?
**A.** 20 ng/mL and 13 ng/mL and 8 ng/mL

**Q.** What about the concentration at 0.5 h ([5]; dog, plasma, po, 107 mg, 1/2 hr, mean, read-out: Mean plasma level of unchanged propranolol-o-hemi-succinate HCl) of the same molecule?
**A.** 1760 ng/mL

**Q.** What about the concentration at 1 h ([5]; dog, plasma, po, 107 mg, 1 hr, mean, read-out: Mean plasma level of unchanged propranolol-o-hemi-succinate HCl) of the same molecule?
**A.** 2350 ng/mL

**Q.** And the concentration at 2 h ([5]; dog, plasma, po, 107 mg, 2 hrs, mean, read-out: Mean plasma level of unchanged propranolol-o-hemi-succinate HCl)?
**A.** 465 ng/mL

**Q.** And the concentration at 4 h ([5]; dog, plasma, po, 107 mg, 4 hrs, mean, read-out: Mean plasma level of unchanged propranolol-o-hemi-succinate HCl)?
**A.** 62 ng/mL

**Q.** And the concentration at 6 h ([5]; dog, plasma, po, 107 mg, 6 hrs, mean, * = estimate only, below level of reliable quantitation, read-out: Mean plasma level of unchanged propranolol-o-hemi-succinate HCl)?
**A.** ~10 ng/mL

**Q.** What about the AUC(0-t) at 6 h ([5]; dog, plasma, po, 107 mg, mean, read-out: Mean AUC 0-6 Hrs. of unchanged propranolol-o-hemi-succinate HCl) of the same molecule?
**A.** 3470 ng·h/mL

**Q.** And the “AUC 0-6 Hrs. of unchanged propranolol-o-hemi-succinate HCl” value ([5]; oral 107 mg, individual dogs, Hydrochloride, 360 min)?
**A.** 3590 ng·h/mL and 3366 ng·h/mL and 4818 ng·h/mL and 2121 ng·h/mL
